# Assay results from ChEMBL document CHEMBL1833960, “Identification of 5,6-substituted 4-aminothieno[2,3-d]pyrimidines as LIMK1 inhibitors” (Bioorg Med Chem Lett, 2011).
# What was measured:
# [1] = target: T1, LIM domain kinase 1 (Homo sapiens, UniProt P53667); experiment: Inhibition of LIMK1 using cofilin-2 as substrate after 60 mins by Kinase-Glo assay
# [2] = target: T1, LIM domain kinase 1; experiment: Inhibition of LIMK1 using cofilin-2 as substrate after 60 mins by TR-FRET assay
# T1 sequence (P53667 whole entry, the tested form may be a part): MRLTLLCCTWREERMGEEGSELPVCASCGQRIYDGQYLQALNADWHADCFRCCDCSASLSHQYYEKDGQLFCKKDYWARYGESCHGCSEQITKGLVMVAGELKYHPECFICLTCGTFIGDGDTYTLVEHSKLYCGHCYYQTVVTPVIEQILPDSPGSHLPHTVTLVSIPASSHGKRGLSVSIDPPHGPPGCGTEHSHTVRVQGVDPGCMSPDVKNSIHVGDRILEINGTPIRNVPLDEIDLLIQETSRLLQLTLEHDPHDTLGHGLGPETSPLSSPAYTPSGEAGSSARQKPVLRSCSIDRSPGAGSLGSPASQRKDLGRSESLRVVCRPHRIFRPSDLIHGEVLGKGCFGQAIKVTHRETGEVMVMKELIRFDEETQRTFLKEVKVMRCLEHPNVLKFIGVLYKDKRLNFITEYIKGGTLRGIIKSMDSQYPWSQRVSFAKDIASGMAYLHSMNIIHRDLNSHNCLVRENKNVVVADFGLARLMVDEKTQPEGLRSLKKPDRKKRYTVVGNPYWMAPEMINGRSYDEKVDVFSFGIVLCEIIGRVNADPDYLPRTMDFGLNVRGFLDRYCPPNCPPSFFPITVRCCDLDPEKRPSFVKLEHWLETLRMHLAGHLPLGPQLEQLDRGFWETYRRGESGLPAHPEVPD
SMILES,IC50 [1],IC50 [2]
CN(C)c1ncnc2sc3c(c12)CCCC3,> 100 µM,> 100 µM
COc1ccc(Nc2ncnc3sc4c(c23)CCCC4)cc1,> 100 µM,> 100 µM
OCCNc1ncnc2sc3c(c12)CCCC3,> 100 µM,> 100 µM
c1ccc(CCNc2ncnc3sc4c(c23)CCCC4)cc1,> 100 µM,> 100 µM
Nc1nc(-c2ccccc2)nc2sc3c(c12)CCCC3,> 100 µM,> 100 µM
CC1(C)Cc2c(sc3ncnc(N)c23)CO1,12.7 µM,12.7 µM
Nc1ncnc2sc3c(c12)CCC(c1ccccc1)C3 (stereo not given),> 20 µM,> 20 µM
Cc1c(-c2ccccc2)sc2ncnc(N)c12,17 µM,17 µM
Nc1ncnc2sc3c(c12)CCC(C(=O)O)C3 (stereo not given),> 20 µM,> 20 µM
Cc1nc(N)c2c3c(sc2n1)CCCC3,> 100 µM,> 100 µM
Nc1nc(S)nc2sc3c(c12)CCCCC3,> 100 µM,> 100 µM
CSc1nc(N)c2c3c(sc2n1)CCC3,> 100 µM,> 100 µM
Nc1nc(=S)[nH]c2sc3c(c12)CCCC3,> 100 µM,> 100 µM
Nc1nc(SCC(=O)O)nc2sc3c(c12)CCCC3,> 100 µM,> 100 µM
Nc1nc(-c2cccs2)nc2sc3c(c12)CCCC3,> 100 µM,> 100 µM
CSc1nc(N)c2c3c(sc2n1)CCCCC3,> 100 µM,> 100 µM
CNc1ncnc2sc3c(c12)CCCC3,> 100 µM,> 100 µM
NCCNc1ncnc2sc3c(c12)CCCC3,> 100 µM,> 100 µM
CC(Nc1ncnc2sc3c(c12)CCCC3)c1ccccc1 (stereo not given),> 100 µM,> 100 µM
c1nc(N2CCCCC2)c2c3c(sc2n1)CCCC3,> 100 µM,> 100 µM
CC1CCc2c(sc3ncnc(N)c23)C1 (stereo not given),18 µM,18 µM
NC(=O)c1sc2ncccc2c1N,37 µM,
NC(=O)c1sc2ccccc2c1N,33 µM,
CSc1nc(N)c2c3c(sc2n1)CCCC3,> 100 µM,> 100 µM

# Molecules with a lower IC50 [1], results first:
IC50 [1],IC50 [2],SMILES
4.4 µM,4.4 µM,Cc1sc2ncnc(N)c2c1C
7 µM,,Nc1ncnc2c1sc1ccccc12
4 µM,,Cn1c2ccccc2c2ncnc(N)c21
0.3 µM,,Nc1ncnc2c1sc1cc(-c3ccccc3)ccc12
0.26 µM,,Cn1c2cc(-c3ccccc3)ccc2c2ncnc(N)c21
3.2 µM,3.2 µM,COc1ccc(-c2sc3ncnc(N)c3c2C)cc1OC
11 µM,11 µM,Nc1ncnc2sc3c(c12)Cc1ccccc1-3
2.3 µM,2.3 µM,CCOC(=O)C1CCc2c(sc3ncnc(N)c23)C1 (stereo not given)
9.1 µM,9.1 µM,NC(=O)C1CCc2c(sc3ncnc(N)c23)C1 (stereo not given)
9.5 µM,9.5 µM,Nc1ncnc2sc3c(c12)CCC(C(=O)N1CCOCC1)C3 (stereo not given)
0.66 µM,0.66 µM,Nc1ncnc2sc3c(c12)CCN(Cc1ccccc1)C3
2.8 µM,2.8 µM,CC1(C)CCc2c(sc3ncnc(N)c23)C1
3.5 µM,3.5 µM,Nc1ncnc2sc3c(c12)CCOC3
4.3 µM,4.3 µM,Nc1ncnc2sc3c(c12)CCc1ccccc1-3
8.6 µM,8.6 µM,Nc1ncnc2sc3c(c12)CCC(C(=O)NCc1ccccc1)C3 (stereo not given)
4 µM,4 µM,Nc1ncnc2sc3c(c12)CCCC3
5.3 µM,5.3 µM,Nc1ncnc2sc3c(c12)CCC3
2.5 µM,2.5 µM,Nc1ncnc2sc3c(c12)CCCCC3
1.8 µM,1.8 µM,Nc1ncnc2sc3c(c12)CC1CC3C1
2.1 µM,2.1 µM,CC1(C)CCc2sc3ncnc(N)c3c21
2.7 µM,2.7 µM,CC1CCCc2sc3ncnc(N)c3c21 (stereo not given)
9 µM,,Nc1ncnc2c1sc1ncccc12
